As usually defined, the melting point is the temperature of the solid-liquid transition. In the case of `CC(C)n1nc(-c2c(NCc3ccccn3)nc(N)nc2-c2ccccc2)ccc1=O` [Example 121, 6-{2-Amino-4-phenyl-6-[(2-pyridinylmethyl)amino]-5-pyrimidinyl}-2-isopropyl-3(2H)-pyridazinone], the melting point lay in the range of 196 to 198 °C.
The molecule `CC(C)n1nc(-c2c(NCc3cccnc3)nc(N)nc2-c2ccccc2)ccc1=O` [Example 122, 6-{2-Amino-4-phenyl-6-[(3-pyridinylmethyl)amino]-5-pyrimidinyl}-2-isopropyl-3(2H)-pyridazinone] displayed a melting point of 215 to 216.5 °C.
Take `CC(C)n1nc(-c2c(NCc3ccncc3)nc(N)nc2-c2ccccc2)ccc1=O` [Example 123, 6-{2-Amino-4-phenyl-6-[(4-pyridinylmethyl)amino]-5-pyrimidinyl}-2-isopropyl-3(2H)-pyridazinone]: the melting point is 221.5 to 222.5 °C.
With `CC(C)n1nc(-c2c(NCc3ccco3)nc(N)nc2-c2ccccc2)ccc1=O` [Example 124, 6-{2-Amino-4-[(2-furylmethyl)amino]-6-phenyl-5-pyrimidinyl}-2-isopropyl-3(2H)-pyridazinone], the melting point is 213 to 214 °C.
As to `CC(C)n1nc(-c2c(-c3ccccc3)nc(N)nc2N2CCCC2)ccc1=O` [Example 125, 6-[2-Amino-4-phenyl-6-(1-pyrrolidinyl)-5-pyrimidinyl]-2-isopropyl-3(2H)-pyridazinone], the melting point is over 300 °C.
`CC(C)n1nc(-c2c(-c3ccccc3)nc(N)nc2N2CCCCC2)ccc1=O` [Example 126, 6-[2-Amino-4-phenyl-6-(1-piperidinyl)-5-pyrimidinyl]-2-isopropyl-3(2H)-pyridazinone] showed a melting point of 221 to 223 °C.
In turn, `CC(C)n1nc(-c2c(-c3ccccc3)nc(N)nc2N2CCOCC2)ccc1=O` [Example 127, 6-[2-Amino-4-(4-morpholinyl)-6-phenyl-5-pyrimidinyl]-2-isopropyl-3(2H)-pyridazinone] showed a melting point of 251 to 253 °C.
The molecule `CC(C)n1nc(-c2c(-c3ccccc3)nc(N)nc2N2CCNCC2)ccc1=O` [Example 128, 6-[2-amino-4-phenyl-6-(1-piperazinyl)-5-pyrimidinyl]-2-isopropyl-3(2H)-pyridazinone] displayed a melting point of 254 to 256 °C.
As for `CC(C)n1nc(-c2c(-c3ccccc3)nc(N)nc2N2CCN(C)CC2)ccc1=O` [Example 129, 6-[2-Amino-4-(4-methyl-1-piperazinyl)-6-phenyl-5-pyrimidinyl]-2-isopropyl-3(2H)-pyridazinone], the melting point lay within 213 to 215 °C.
For the molecule `CC(C)n1nc(-c2c(-c3ccccc3)nc(N)nc2-n2ccnc2)ccc1=O` [Example 130, 6-[2-amino-4-(1H-imidazol-1-yl)-6-phenyl-5-pyrimidinyl]-2-isopropyl-3(2H)-pyridazinone], the melting point was in the range of 255 to 258 °C.
The figure for `CC(C)n1nc(-c2c(-c3ccccc3)nc(N)nc2-n2cncn2)ccc1=O` [Example 131, 6-[2-Amino-4-phenyl-6-(1H-1,2,4-triazol-1-yl)-5-pyrimidinyl]-2-isopropyl-3(2H)-pyridazinone] is 266 to 268 °C.
Take `CC(C)n1nc(-c2c(-c3ccccc3)nc(N)nc2-n2cnc3ccccc32)ccc1=O` [Example 132, 6-[2-Amino-4-(1H-benzimidazol-1-yl)-6-phenyl-5-pyrimidinyl]-2-isopropyl-3(2H)-pyridazinone]: the melting point is 242 to 244 °C.
Molecule `CC(C)n1nc(-c2c(Nc3ccccc3)nc(N)nc2-c2ccccc2)ccc1=O` [Example 133, 6-(2-amino-4-anilino-6-phenyl-5-pyrimidinyl)-2-isopropyl-3(2H)-pyridazinone] showed a melting point of 240 to 242 °C.
For the molecule `Cc1nc(Nc2nc(N)nc(-c3ccccc3)c2-c2ccc(=O)n(C(C)C)n2)sc1C` [Example 134, 6-{2-Amino-4-[(4,5-dimethyl-1,3-thiazol-2-yl)amino]-6-phenyl-5-pyrimidinyl}-2-isopropyl-3(2H)-pyridazinone], the melting point was 256 to 257.5 °C.

The record behind these values is US20050043315A1, “Aminopyrimidine compounds, processes for their preparation and pharmaceutical compositions containing them” (priority 2002, published 2005).
